Measurements from patent publication US4020164A, “Benzomorphan derivatives” (priority 1972, dated 1977).
Read-outs that look alike come from different tables or passages of the source.

How the values were obtained:
[1] = system: naloxone; assay: Naloxone challenge after subchronic administration of test compound (physical dependency); details: mice; naloxone in doses of up to 100 mg/kg; same schedule and total dosage as for acute morphine dependency
[2] = system: morphine; design: species or system mice; details: mouse, in vivo
[3] = system: morphine; assay: Precipitated Withdrawal Jumping Test (morphine antagonism in morphine-dependent mice); type: in vivo; details: morphine-dependent mice
Experimental: (§1) The pharmacological investigations were conducted on mice weighing 20-22 g. or on rats weighing 80-110 g. Unless indicated otherwise, the test substances were administered in the form of the hydrochloride acid addition salt thereof in an isotonic NaCl solution, and the animals were examined 30 minutes after subcutaneous (sc) application. The injection volume was respectively 5 ml./kg. of body weight. 10-40 controls animals were used in each experiment. The test and control solutions were administered in accordance with a randomized injection schedule. Seven logarithmically spaced dosages were employed of each test substance. The effective dose (ED) was calculated by probit analysis (Finney, D. J., "Probit Analysis," Cambridge University Press, 2nd Edition, Cambridge 1957). ED50 figures were rounded.
The test compound was given to dose groups of 8 animals. The antagonist-precipitated withdrawal jumping frequencies were recorded during three 5-minute observation intervals uniformly distributed over 30 minutes after administration of the test compound. […] The criterion for a precipitating effect is a mean jumping frequency of >1/minute.

[4] = system: morphine; assay: animal or person; type: in vivo, rats
[5] = system: apomorphine; assay: Apomorphine antagonism test; type: in vivo, mice; details: Mus musculus, sc, read-out: ED50, Apomorphine Antagonism
Experimental: as §1
The criterion for antagonistic effect was the absence of stereotyped movements within an observation period of one minute.

[6] = system: phenylquinone; details: mice; after subchronic administration of equal total doses
Experimental: as §1
(§2) In the acute test, the test compounds were administered perorally (p.o.) or subcutaneously (s.c.) to mice. Eight mice were used per dose. Seven minutes prior to the testing, the animals received 2 mg./kg. of phenylquinone intraperitoneally. […] The criterion for protective effect was absence of writhes during the eighth minute after phenylquinone administration.
In the subchronic test, the same test was performed 25 hours after the last injection of a 64-hour pretreatment period, with the test compound being administered subcutaneously. During the pretreatment period, the subjects received a total of 550 mg/kg. of the test compound, with the test compound being injected over a period of 22 hours in 4 increasing dosages in salt form, and over an additional 42 hours in 2 identical dosages in free base form in sesame oil.

[7] = system: phenylquinone; assay: Writhing test, acute (phenylquinone writhing, analgesic activity); type: in vivo; details: Mus musculus, mice, acute, phenylquinone 2 mg/kg i.p., hydrochloride
Experimental: as §1, §2

[8] = system: electroshock; assay: Maximal electroshock test; type: in vivo; details: Mus musculus, sc, 0.5 h; mice; 16 mA/50 c.p.s., 0.2 second, transcorneal; absence of tonic extensor cramp of hind limbs, 30 min
Experimental: 10-40 controls animals were used in each experiment. […] ED50 figures were rounded.
In the maximum electroshock test, the test substances were administered to dose groups of 6 mice. Sinusoidal pulses of 16 milliamperes/50 c.p.s. [Hertz] and 0.2 second duration were delivered transcorneally via silver electrodes. The shock intensity used elicits nonlethal tonic-clonic convulsions in control animals (p <0.01, N = 192). The criterion for protective effect was the absence of the tonic extensor cramp of the hind limbs after shock application (modified test according to Swinyard et al., J. Pharmacol. Exp. Ther. 106, 319, 1952).

CC(C)=CCN1CCC2(C)c3cc(O)ccc3CC1C2C (centres unmarked) [Pentazocine, reference compound]
withdrawal jumping precipitated by naloxone after subchronic administration (morphine-like physical dependency) [1]: no withdrawal jumping is precipitated | morphine-antagonistic activity, tail-flick test (in words), mice [2]: weaker activity | ED50, Morphine Antagonism-Tail-Flick Test, Mice ([2]; sc, 12.5 mg/kg): 5 mg/kg | precipitated withdrawal effect (in words) [3]: completely inactive | ED50, Precipitated Withdrawal Jumping Test (inactive, footnote 3) ([3]; tested at 0.78 - 50 mg/kg): Inactive | ED50 ([4]; Rattus norvegicus, sc, read-out: ED50, Morphine Antagonism-Tail-Flick Test, Rats): 40 mg/kg | morphine-antagonistic activity, tail-flick test (in words), rats ([4]; rat, in vivo): weaker activity, especially in rats | ED50 [5]: 40 mg/kg | tolerance development [6]: do not exhibit tolerance development | ED50 ([7]; po, 10 min, p.o., 10 min p.i., ED50 rounded, read-out: ED50, writhing test, acute p.o., 10 min. p.i.): 50 mg/kg | ED50 ([7]; po, 0.5 h, p.o., 30 min p.i., ED50 rounded, read-out: ED50, writhing test, acute p.o., 30 min. p.i.): 70 mg/kg | ED50 ([7]; sc, 10 min, s.c., 10 min p.i., ED50 rounded, read-out: ED50, writhing test, acute s.c., 10 min. p.i.): 3 mg/kg | ED50 ([7]; sc, 0.5 h, s.c., 30 min p.i., * = significant difference between acute and subchronic ED50 (p < 0.001), read-out: ED50, writhing test, acute s.c., 30 min. p.i.): 3 mg/kg | ED50 [8]: 17 mg/kg
